In EP0497609B1, “Pyrimido-benzothiazine derivatives for the treatment of inflammation, allergy and cardiovascular disease” (PFIZER INC., priority 1991, dated 1992):

How the values were obtained:
Format in all cases: in vivo
[1] = system: mouse; experiment: PAF (Platelet Activating Factor) lethality assay; settings: for PAF lethality survival (%): Dose 50 mg/kg
Source text: (§1) The compounds of formulae (I) and (II) of this invention can be shown to inhibit lipoxygenase according to various testing methods. Such methods include the following: RPC (Rat Peritoneal Cavity resident cells) assay according to methods described in Jap. J. Inflammation 7:145-150 (1987), "Synthesis of leukotrienes by peritoneal macrophages"; PAF (Platelet Activating Factor) lethality assay according to methods described in Prostaglandisis 30(4):545-551 (1985); and y-RFE (yeast induced Rat Foot Edema) assay according to methods described in Biochem. Pharmacol. 36:547 (1987).
In the PAF lethality assay, the compound of Example 5, as shown in the Table above, gave a high (69%) survival percentage. The term "survival percentage" herein means the inhibitory efficacy to shock death of the mouse through lipoxygenase metabolites activated by dosing with PAF.

[2] = system: rat foot; experiment: y-RFE (yeast induced Rat Foot Edema) assay; settings: Dose 60 mg/kg; rat foot edema induced by yeast suspension
Source text: as §1
Furthermore, in the y-RFE assay, the compound of Example 5, as shown in the Table above, gave a high (69%) edema inhibitory percentage. The term "edema inhibitory percentage" herein means the inhibitory efficacy to the swelling of inflammatory edema of the rat foot induced by the injection of yeast suspension.

[3] = system: male ICR mice; experiment: Acute toxicity after oral administration; settings: 7 hours after oral administration at 600 mg/kg to male ICR mice
Method: Acute toxicity of the compound of Example 5 was investigated 7 hours after oral administration at 600 mg/kg to male ICR mice (Charles River Japan Inc., 5 weeks old, avg. body weight of 28 g).

| Structure (SMILES) | PAF lethality survival (%) [1] | y-RFE edema inhibitory (%) [2] | ED50 ([1]; Platelet, read-out: ED₅₀ value in the PAF lethality assay) | Acute toxicity [3] |
| --- | --- | --- | --- | --- |
| O=c1[nH]c2c(c(=O)[nH]1)Nc1ccccc1S2 [Example 1, 1,5-Dihydro-2H-pyrimido[4,5-b][1,4]benzothiazine-2,4(3H)-dione] | 56% | – | – | – |
| Cn1c(=O)[nH]c2c(c1=O)Nc1ccccc1S2 [Example 2, 1,5-Dihydro-3-methyl-2H-pyrimido[4,5-b][1,4]benzothiazine-2,4(3H)-dione] | 30% | – | – | – |
| Cn1c(=O)nc2sc3ccccc3nc-2c1=O [Example 5, 3-Methyl-2H-pyrimido[4,5-b][1,4]benzothiazine-2,4(3H)-dione] | 69% | 69% | 51 mg/kg | did not show any acute toxic symptoms |
